ChEMBL document CHEMBL5236641, “Persistent challenges in the development of an mGlu7 PAM in vivo tool compound: The discovery of VU6046980” (Bioorg Med Chem Lett, 2023)
The source made the active and inactive calls. No cut-off for these calls is given here.

Legend:
[1] = target: T1, Metabotropic glutamate receptor 8 (Homo sapiens, UniProt O00222); assay: Positive allosteric modulation of mGluR8 (unknown origin)
[2] = target: Metabotropic glutamate receptor 7 (Rattus norvegicus, UniProt P35400); assay: Positive allosteric modulation of rat mGluR7
Chain of Metabotropic glutamate receptor 7 (P35400 whole entry): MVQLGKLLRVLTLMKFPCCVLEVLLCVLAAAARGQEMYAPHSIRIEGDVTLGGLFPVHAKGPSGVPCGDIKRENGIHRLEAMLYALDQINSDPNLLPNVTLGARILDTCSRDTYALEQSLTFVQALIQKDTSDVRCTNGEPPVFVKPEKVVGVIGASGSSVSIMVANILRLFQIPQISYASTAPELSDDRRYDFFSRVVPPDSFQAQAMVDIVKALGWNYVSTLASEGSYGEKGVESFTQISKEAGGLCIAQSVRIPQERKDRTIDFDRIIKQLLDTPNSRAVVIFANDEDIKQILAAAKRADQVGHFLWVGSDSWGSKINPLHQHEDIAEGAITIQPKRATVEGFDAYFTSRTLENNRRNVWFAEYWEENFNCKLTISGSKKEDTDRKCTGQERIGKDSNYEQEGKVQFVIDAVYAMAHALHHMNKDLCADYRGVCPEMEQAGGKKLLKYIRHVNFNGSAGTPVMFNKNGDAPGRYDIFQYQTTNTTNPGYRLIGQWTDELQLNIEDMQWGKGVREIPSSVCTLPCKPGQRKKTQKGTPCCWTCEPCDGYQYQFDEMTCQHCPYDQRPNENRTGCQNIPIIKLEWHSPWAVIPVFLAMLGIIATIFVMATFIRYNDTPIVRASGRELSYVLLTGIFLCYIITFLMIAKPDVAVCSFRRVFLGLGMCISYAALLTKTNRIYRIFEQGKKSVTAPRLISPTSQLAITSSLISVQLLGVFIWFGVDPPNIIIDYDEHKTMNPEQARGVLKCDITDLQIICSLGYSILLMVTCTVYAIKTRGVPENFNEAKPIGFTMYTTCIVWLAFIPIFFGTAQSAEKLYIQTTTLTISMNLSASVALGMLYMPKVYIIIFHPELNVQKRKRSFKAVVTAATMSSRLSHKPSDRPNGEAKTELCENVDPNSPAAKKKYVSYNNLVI

[3] = (§1) Positive allosteric modulation of rat mGluR8
Rattus norvegicus [4] = organism: Rattus norvegicus; assay: Positive allosteric modulation of rat mGluR8 in presence of L-AP4 Max relative to control; conditions: filed as positive allosteric modulator
[5] = Unbound brain-to-plasma concentration ratio in rat; type: ADME
Rattus norvegicus [6] = organism: Rattus norvegicus; assay: as §1
Mus musculus [7] = assay: Effect on locomotor response in wild type mouse assessed as decrease in distance travelled in an open field at 30 mg/kg, ip measured over 60 mins; type: functional, organism-based
[8] = target: T2, Metabotropic glutamate receptor 1 (Homo sapiens, UniProt Q13255); assay: Positive allosteric modulation of human mGluR1
T2 sequence (Q13255 whole entry): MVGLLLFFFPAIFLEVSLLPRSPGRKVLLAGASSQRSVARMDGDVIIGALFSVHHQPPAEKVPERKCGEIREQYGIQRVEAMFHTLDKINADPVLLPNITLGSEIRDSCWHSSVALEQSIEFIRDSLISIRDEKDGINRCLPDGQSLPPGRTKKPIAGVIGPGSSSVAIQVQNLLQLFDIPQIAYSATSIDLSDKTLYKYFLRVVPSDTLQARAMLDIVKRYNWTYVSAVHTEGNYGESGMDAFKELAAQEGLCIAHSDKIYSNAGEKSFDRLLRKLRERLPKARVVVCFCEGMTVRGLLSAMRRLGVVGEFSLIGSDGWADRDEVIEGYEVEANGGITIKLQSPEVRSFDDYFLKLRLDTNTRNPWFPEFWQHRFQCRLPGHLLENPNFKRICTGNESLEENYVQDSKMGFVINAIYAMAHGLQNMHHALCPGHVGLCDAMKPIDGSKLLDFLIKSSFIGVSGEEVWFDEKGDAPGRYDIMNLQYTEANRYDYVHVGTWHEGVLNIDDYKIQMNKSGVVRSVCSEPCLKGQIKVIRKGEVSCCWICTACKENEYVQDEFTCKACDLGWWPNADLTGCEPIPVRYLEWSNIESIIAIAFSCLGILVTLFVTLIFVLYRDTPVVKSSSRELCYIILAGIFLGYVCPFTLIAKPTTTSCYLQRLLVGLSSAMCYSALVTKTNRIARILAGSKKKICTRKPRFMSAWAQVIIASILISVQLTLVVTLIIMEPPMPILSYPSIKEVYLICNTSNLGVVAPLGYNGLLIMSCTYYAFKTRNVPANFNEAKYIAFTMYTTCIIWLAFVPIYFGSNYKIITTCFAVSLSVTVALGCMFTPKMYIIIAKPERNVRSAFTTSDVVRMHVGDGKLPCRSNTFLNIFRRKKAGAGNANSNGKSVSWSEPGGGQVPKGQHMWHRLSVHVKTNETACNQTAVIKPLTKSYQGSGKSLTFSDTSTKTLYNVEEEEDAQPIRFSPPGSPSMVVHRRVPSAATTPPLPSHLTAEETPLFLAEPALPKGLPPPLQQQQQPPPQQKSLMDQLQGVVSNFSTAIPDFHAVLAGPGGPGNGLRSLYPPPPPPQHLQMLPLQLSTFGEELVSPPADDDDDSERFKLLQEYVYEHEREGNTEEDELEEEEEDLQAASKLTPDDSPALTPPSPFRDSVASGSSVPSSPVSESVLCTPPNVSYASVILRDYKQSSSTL

[9] = target: T3, Metabotropic glutamate receptor 2 (Homo sapiens, UniProt Q14416); assay: Positive allosteric modulation of human mGluR2
T3 sequence (Q14416 whole entry): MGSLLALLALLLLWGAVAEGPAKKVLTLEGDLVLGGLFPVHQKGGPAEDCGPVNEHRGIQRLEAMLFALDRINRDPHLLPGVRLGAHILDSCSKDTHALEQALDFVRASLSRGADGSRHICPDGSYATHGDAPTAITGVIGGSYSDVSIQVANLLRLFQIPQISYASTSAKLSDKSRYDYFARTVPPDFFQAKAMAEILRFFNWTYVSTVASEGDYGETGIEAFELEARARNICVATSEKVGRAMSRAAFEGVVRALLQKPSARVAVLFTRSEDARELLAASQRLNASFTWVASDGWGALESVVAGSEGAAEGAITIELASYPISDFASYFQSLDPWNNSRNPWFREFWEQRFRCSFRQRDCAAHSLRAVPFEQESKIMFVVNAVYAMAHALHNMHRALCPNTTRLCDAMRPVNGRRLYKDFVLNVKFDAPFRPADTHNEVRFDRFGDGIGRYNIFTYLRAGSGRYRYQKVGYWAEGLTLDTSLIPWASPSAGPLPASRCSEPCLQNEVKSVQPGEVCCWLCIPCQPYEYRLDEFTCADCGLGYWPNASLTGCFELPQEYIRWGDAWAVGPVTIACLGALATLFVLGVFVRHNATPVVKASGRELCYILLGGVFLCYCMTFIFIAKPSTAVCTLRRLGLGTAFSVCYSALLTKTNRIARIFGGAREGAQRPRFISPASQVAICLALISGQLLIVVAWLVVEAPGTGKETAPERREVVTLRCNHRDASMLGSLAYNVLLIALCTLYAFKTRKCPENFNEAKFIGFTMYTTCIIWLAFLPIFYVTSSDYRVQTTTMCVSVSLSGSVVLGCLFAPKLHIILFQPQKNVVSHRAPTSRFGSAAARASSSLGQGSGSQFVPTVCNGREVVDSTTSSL

[10] = Unbound fraction in rat plasma; type: ADME, cell-free
[11] = target: T4, Metabotropic glutamate receptor 3 (Homo sapiens, UniProt Q14832); assay: Positive allosteric modulation of human mGluR3
T4 sequence (Q14832 whole entry): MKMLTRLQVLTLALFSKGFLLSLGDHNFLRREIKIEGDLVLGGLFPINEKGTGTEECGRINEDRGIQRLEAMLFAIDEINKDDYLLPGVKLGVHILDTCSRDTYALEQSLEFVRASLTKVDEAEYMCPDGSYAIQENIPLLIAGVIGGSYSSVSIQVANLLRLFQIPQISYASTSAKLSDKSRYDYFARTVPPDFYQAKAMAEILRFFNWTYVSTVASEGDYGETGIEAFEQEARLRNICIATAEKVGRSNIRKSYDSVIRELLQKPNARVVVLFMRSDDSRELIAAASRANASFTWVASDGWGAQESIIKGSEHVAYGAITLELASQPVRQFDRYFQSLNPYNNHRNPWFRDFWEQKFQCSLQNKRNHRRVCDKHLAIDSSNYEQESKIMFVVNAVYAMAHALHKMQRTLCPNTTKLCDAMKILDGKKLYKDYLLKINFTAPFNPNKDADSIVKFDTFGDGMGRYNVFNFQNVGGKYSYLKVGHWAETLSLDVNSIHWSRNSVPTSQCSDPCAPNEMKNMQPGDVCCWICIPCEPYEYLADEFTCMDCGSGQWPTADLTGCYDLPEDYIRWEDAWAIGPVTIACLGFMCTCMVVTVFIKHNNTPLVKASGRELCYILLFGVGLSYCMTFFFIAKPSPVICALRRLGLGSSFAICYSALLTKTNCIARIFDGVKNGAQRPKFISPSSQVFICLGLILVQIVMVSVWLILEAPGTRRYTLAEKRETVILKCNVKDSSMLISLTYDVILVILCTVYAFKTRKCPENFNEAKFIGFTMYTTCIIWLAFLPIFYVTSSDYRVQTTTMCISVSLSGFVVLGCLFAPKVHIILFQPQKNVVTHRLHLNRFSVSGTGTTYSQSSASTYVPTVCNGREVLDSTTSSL

[12] = Unbound fraction in rat brain; type: ADME, tissue-based
[13] = target: Sigma non-opioid intracellular receptor 1 (Homo sapiens) (UniProt Q99720); assay: Inhibition of human sigma-1 receptor at 10 uM relative to control
Chain of Sigma non-opioid intracellular receptor 1 (Homo sapiens) (Q99720 whole entry): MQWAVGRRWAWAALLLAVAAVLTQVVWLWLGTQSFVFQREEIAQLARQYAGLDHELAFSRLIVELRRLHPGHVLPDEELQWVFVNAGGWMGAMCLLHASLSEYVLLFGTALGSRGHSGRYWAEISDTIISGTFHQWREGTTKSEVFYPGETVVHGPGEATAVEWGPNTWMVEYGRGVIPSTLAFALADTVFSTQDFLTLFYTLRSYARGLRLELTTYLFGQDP

[14] = target: Metabotropic glutamate receptor 4 (Homo sapiens, UniProt Q14833); assay: Positive allosteric modulation of human mGluR4
Mus musculus [15] = assay: Anxiolytic activity in anxiety induced wild type mouse model assessed as reduction in marbles burying at 30 mg/kg; type: functional, organism-based
[16] = target: T1, Metabotropic glutamate receptor 8; assay: Positive allosteric modulation of human mGluR8
Mus musculus [17] = assay: Effect on locomotor response in Grm7 knockout mouse assessed as decrease in distance travelled in an open field at 30 mg/kg, ip; type: functional, organism-based
[18] = target: T5, Metabotropic glutamate receptor 5 (Homo sapiens, UniProt P41594); assay: Positive allosteric modulation of human mGluR5
[19] = Unbound fraction in mouse brain; type: ADME, tissue-based
[20] = Unbound fraction in mouse plasma; type: ADME, cell-free
[21] = target: T5, Metabotropic glutamate receptor 5; assay: Positive allosteric modulation of mGluR5 (unknown origin)
[22] = target: T4, Metabotropic glutamate receptor 3; assay: Positive allosteric modulation of mGluR3 (unknown origin)
[23] = target: T3, Metabotropic glutamate receptor 2; assay: Positive allosteric modulation of mGluR2 (unknown origin)
[24] = target: T2, Metabotropic glutamate receptor 1; assay: Positive allosteric modulation of mGluR1 (unknown origin)

Cc1ccnc(Nc2nc(-c3cn[nH]c3)c(C)s2)n1
EC50 [1]: […]

T1 sequence (O00222 whole entry): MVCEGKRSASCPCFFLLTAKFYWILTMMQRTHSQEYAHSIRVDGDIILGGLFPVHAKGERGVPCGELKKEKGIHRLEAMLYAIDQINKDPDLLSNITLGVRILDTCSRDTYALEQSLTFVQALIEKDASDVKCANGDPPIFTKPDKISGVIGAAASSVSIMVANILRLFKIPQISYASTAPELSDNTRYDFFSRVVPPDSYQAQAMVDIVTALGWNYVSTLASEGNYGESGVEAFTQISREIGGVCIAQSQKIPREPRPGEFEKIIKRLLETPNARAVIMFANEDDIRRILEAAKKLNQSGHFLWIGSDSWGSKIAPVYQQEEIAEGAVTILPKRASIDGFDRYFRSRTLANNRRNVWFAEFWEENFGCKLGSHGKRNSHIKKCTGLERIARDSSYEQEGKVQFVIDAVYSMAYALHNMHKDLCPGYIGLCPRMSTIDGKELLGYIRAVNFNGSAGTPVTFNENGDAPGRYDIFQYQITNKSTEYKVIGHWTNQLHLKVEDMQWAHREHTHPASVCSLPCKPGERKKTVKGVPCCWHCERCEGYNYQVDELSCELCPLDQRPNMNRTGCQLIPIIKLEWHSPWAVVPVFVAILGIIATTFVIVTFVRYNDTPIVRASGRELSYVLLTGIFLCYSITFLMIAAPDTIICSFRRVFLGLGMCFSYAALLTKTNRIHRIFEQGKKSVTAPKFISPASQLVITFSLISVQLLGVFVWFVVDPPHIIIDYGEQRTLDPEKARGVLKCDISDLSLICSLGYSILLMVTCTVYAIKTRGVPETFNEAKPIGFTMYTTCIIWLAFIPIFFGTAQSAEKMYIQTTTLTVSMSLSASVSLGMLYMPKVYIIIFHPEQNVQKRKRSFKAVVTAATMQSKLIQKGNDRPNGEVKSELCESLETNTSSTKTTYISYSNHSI

COc1cc(F)cc2c(N3CCN4c5ccccc5OC[C@H]4C3)c(C#N)nnc12
EC50 [2]: 0.043 µM
EC50 [3]: 0.19 µM
pEC50 [3]: 6.72
Activity (Rattus norvegicus [4]): 68%

COc1cc(F)cc2c(N3CCN(c4ccccc4F)CC3)c(C#N)nnc12
EC50 [2]: 0.36 µM
K(p,uu,brain) [5]: 1.9

COc1cc(F)cc2c(N3CCN4c5ccccc5NC(=O)C4C3)c(C#N)nnc12 (stereo not given)
EC50 [2]: 1.2 µM
EC50 [3]: > 30 µM

COc1cc(F)cc2c(N3CCN4c5ccccc5OC[C@@H]4C3)c(C#N)nnc12
EC50 [2]: 0.26 µM
EC50 [3]: > 30 µM

COc1cc(C(F)(F)F)cc2c(N3CCN4c5ccccc5OC[C@@H]4C3)c(C#N)nnc12
EC50 [2]: > 30 µM
EC50 [3]: > 30 µM

COc1ccccc1N1CCN(c2c(C#N)nnc3c(OC)cc(F)cc23)CC1
EC50 [2]: 0.82 µM
Activity (Rattus norvegicus [6]): inactive

COc1cc(C(F)(F)F)cc2c(N3CCN4c5ccccc5OC[C@H]4C3)c(C#N)nnc12
EC50 [2]: 0.34 µM
EC50 [3]: > 30 µM

COc1cc(F)cc2c(N3CCN4c5c(F)cccc5OC[C@@H]4C3)c(C#N)nnc12
Activity (Mus musculus [7]): inactive
EC50 [8]: > 30 µM
EC50 [9]: > 30 µM
fraction unbound [10]: 0.3
EC50 [11]: > 30 µM
fraction unbound [12]: 0.01
inhibition [13]: 95%
Activity (Rattus norvegicus [6]): inactive
EC50 [14]: > 30 µM
Activity (Mus musculus [15]): inactive
EC50 [16]: > 30 µM
Activity (Mus musculus [17]): inactive
EC50 [18]: > 30 µM
fraction unbound [19]: 0.08
Fu [20]: 0.024

COc1cc(F)cc2c(N3CCN4c5ccccc5NCC4C3)c(C#N)nnc12 (stereo not given)
EC50 [2]: 0.12 µM
EC50 [3]: 0.62 µM
pEC50 [3]: 6.21
Activity (Rattus norvegicus [4]): 68%

COc1cc(F)cc2c(N3CCN4c5c(F)cccc5OCC4C3)c(C#N)nnc12 (stereo not given)
EC50 [3]: 0.12 µM
Activity (Rattus norvegicus [4]): 48%

COc1cc(F)cc2c(N3CCN(c4ccccc4OC4CC4)CC3)c(C#N)nnc12
EC50 [2]: 0.31 µM
Activity (Rattus norvegicus [6]): inactive

[2H]C([2H])([2H])Oc1cc(F)cc2c(N3CCN(c4ccccc4F)CC3)c(C#N)cnc12
EC50 [21]: > 10 µM
EC50 [22]: > 10 µM
EC50 [1]: > 10 µM
EC50 [23]: > 10 µM
EC50 [24]: > 10 µM
Kp uu ([5]; read-out: K(p,uu,brain)): 0.9

COC(=O)c1ccc(-n2c(C)cc(C(=O)CSc3ccc(NC(C)=O)cc3)c2C)cc1
EC50 [1]: 0.9 µM

COc1cc(F)cc2c(N3CCN(c4ccccc4OC(C)C)CC3)c(C#N)nnc12
EC50 [2]: 0.26 µM
Activity (Rattus norvegicus [6]): inactive
